What was measured:
Abutilon theophrasti = experiment: Post-emergence herbicidal activity test (stem and leaf spray, pot culture); type: in vivo; settings: 3 weeks after spraying
In short: (§1)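 Graded 0–5 on fresh-weight growth control rate 3 weeks after a single spray-tower application at 10, 5 or 2.5 g/mu. Compounds in acetone with Tween 80 and methyl oleate synergist (1.5 liters/ha), applied to greenhouse weeds at 2- to 3-leaf stage.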

Amaranthus retroflexus = experiment: as above; type: in vivo; settings: 3 weeks after spraying
In short: as §1

Echinochloa crusgalli = experiment: as above; type: in vivo; settings: 3 weeks after spraying
In short: as §1

Portulaca oleracea = experiment: as above; type: in vivo; settings: 3 weeks after spraying
In short: as §1

Setaria viridis = experiment: as above; type: in vivo; settings: 3 weeks after spraying
In short: as §1

Trifoliumre pensL. = experiment: Post-emergence herbicidal activity test (stem and leaf spray, pot culture); type: in vivo; settings: 3 weeks after spraying
In short: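 Rates of 10, 5 and 2.5 g/mu were applied in a single spray-tower treatment to 2–3-leaf plants, thinned to 10 per pot. Formulation: acetone solution, Tween 80, 1.5 L/ha methyl oleate synergist. Weed response assessed after 3 further greenhouse weeks; mean of three experiments.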

Structure (SMILES) | melting point [°C] | Post-emergence herbicidal activity, A. theophrasti (grade) (Abutilon theophrasti; dosage 2.5 g/mu) | Post-emergence herbicidal activity, A. theophrasti (grade) (Abutilon theophrasti; dosage 5 g/mu) | Post-emergence herbicidal activity, A. theophrasti (grade) (Abutilon theophrasti; dosage 10 g/mu) | Post-emergence herbicidal activity, A. retroflexus (grade) (Amaranthus retroflexus; dosage 2.5 g/mu) | Post-emergence herbicidal activity, A. retroflexus (grade) (Amaranthus retroflexus; dosage 5 g/mu) | Post-emergence herbicidal activity, A. retroflexus (grade) (Amaranthus retroflexus; dosage 10 g/mu) | Post-emergence herbicidal activity, E. crusgalli (grade) (Echinochloa crusgalli; dosage 2.5 g/mu) | Post-emergence herbicidal activity, E. crusgalli (grade) (Echinochloa crusgalli; dosage 5 g/mu) | Post-emergence herbicidal activity, E. crusgalli (grade) (Echinochloa crusgalli; dosage 10 g/mu) | Post-emergence herbicidal activity, P. oleracea (grade) (Portulaca oleracea; dosage 2.5 g/mu) | Post-emergence herbicidal activity, P. oleracea (grade) (Portulaca oleracea; dosage 5 g/mu) | Post-emergence herbicidal activity, P. oleracea (grade) (Portulaca oleracea; dosage 10 g/mu) | Post-emergence herbicidal activity, S. viridis (grade) (Setaria viridis; dosage 2.5 g/mu) | Post-emergence herbicidal activity, S. viridis (grade) (Setaria viridis; dosage 5 g/mu) | Post-emergence herbicidal activity, S. viridis (grade) (Setaria viridis; dosage 10 g/mu) | Post-emergence herbicidal activity, Trifoliumre pensL. (grade) (Trifoliumre pensL.; dosage 2.5 g/mu) | Post-emergence herbicidal activity, Trifoliumre pensL. (grade) (Trifoliumre pensL.; dosage 5 g/mu) | Post-emergence herbicidal activity, Trifoliumre pensL. (grade) (Trifoliumre pensL.; dosage 10 g/mu)
O=C(Nc1cc(N2C(=O)C3=C(CCCC3)C2=O)c(F)cc1Cl)C1CCCCC1 [Compound D10, N-(2-chloro-5-(1,3-dioxo-1,3,4,5,6,7-hexahydro-2H-isoindole-2-yl)-4-fluorophenyl)cyclohexanecarboxamide] | 93 to 97 |  |  | 5 (Grade 5: the growth control rate is greater than or equal to 85%) |  |  | 5 (Grade 5: the growth control rate is greater than or equal to 85%) |  |  | 3 (Grade 3: the growth control rate is greater than or equal to 40% and less than 60%) |  |  | 5 (Grade 5: the growth control rate is greater than or equal to 85%) |  |  | 4 (Grade 4: the growth control rate is greater than or equal to 60% and less than 85%) |  |  | 5 (Grade 5: the growth control rate is greater than or equal to 85%)
O=C(COC(=O)c1cc(N2C(=O)C3=C(CCCC3)C2=O)c(F)cc1Cl)c1ccc(Cl)cc1 [Compound E1, 2-(4-chlorophenyl)-2-oxoethyl-2-chloro-5-(1,3-dioxo-1,3,4,5,6,7-hexahydro-2H-isoindole-2-yl)-4-fluorobenzoate] | 138 to 141 |  |  | 5 (Grade 5: the growth control rate is greater than or equal to 85%) |  |  | 5 (Grade 5: the growth control rate is greater than or equal to 85%) |  |  | 3 (Grade 3: the growth control rate is greater than or equal to 40% and less than 60%) |  |  | 5 (Grade 5: the growth control rate is greater than or equal to 85%) |  |  | 4 (Grade 4: the growth control rate is greater than or equal to 60% and less than 85%) |  |  | 5 (Grade 5: the growth control rate is greater than or equal to 85%)
O=C(COc1cc(N2C(=O)C3=C(CCCC3)C2=O)c(F)cc1Cl)c1ccc(F)cc1F [Compound C12, 2-(4-chloro-2-fluoro-5-(2-oxo-2-(2,4-difluorophenyl)ethoxy)phenyl)-4,5,6,7-tetrahydro-1H-isoindole-1,3(2H)-dione] | 158 to 160 | 5 (Grade 5: the growth control rate is greater than or equal to 85%) | 5 (Grade 5: the growth control rate is greater than or equal to 85%) | 5 (Grade 5: the growth control rate is greater than or equal to 85%) | 5 (Grade 5: the growth control rate is greater than or equal to 85%) | 5 (Grade 5: the growth control rate is greater than or equal to 85%) | 5 (Grade 5: the growth control rate is greater than or equal to 85%) | 1 (Grade 1: the growth control rate is greater than or equal to 5% and less than 20%) | 2 (Grade 2: the growth control rate is greater than or equal to 20% and less than 40%) | 3 (Grade 3: the growth control rate is greater than or equal to 40% and less than 60%) | 5 (Grade 5: the growth control rate is greater than or equal to 85%) | 5 (Grade 5: the growth control rate is greater than or equal to 85%) | 5 (Grade 5: the growth control rate is greater than or equal to 85%) | 2 (Grade 2: the growth control rate is greater than or equal to 20% and less than 40%) | 3 (Grade 3: the growth control rate is greater than or equal to 40% and less than 60%) | 4 (Grade 4: the growth control rate is greater than or equal to 60% and less than 85%) | 5 (Grade 5: the growth control rate is greater than or equal to 85%) | 5 (Grade 5: the growth control rate is greater than or equal to 85%) | 5 (Grade 5: the growth control rate is greater than or equal to 85%)

Second part, led by results:

melting point [°C] | Structure (SMILES) | Post-emergence herbicidal activity, A. theophrasti (grade) (Abutilon theophrasti; dosage 2.5 g/mu) | Post-emergence herbicidal activity, A. theophrasti (grade) (Abutilon theophrasti; dosage 5 g/mu) | Post-emergence herbicidal activity, A. theophrasti (grade) (Abutilon theophrasti; dosage 10 g/mu) | Post-emergence herbicidal activity, A. retroflexus (grade) (Amaranthus retroflexus; dosage 2.5 g/mu) | Post-emergence herbicidal activity, A. retroflexus (grade) (Amaranthus retroflexus; dosage 5 g/mu) | Post-emergence herbicidal activity, A. retroflexus (grade) (Amaranthus retroflexus; dosage 10 g/mu) | Post-emergence herbicidal activity, E. crusgalli (grade) (Echinochloa crusgalli; dosage 2.5 g/mu) | Post-emergence herbicidal activity, E. crusgalli (grade) (Echinochloa crusgalli; dosage 5 g/mu) | Post-emergence herbicidal activity, E. crusgalli (grade) (Echinochloa crusgalli; dosage 10 g/mu) | Post-emergence herbicidal activity, P. oleracea (grade) (Portulaca oleracea; dosage 2.5 g/mu) | Post-emergence herbicidal activity, P. oleracea (grade) (Portulaca oleracea; dosage 5 g/mu) | Post-emergence herbicidal activity, P. oleracea (grade) (Portulaca oleracea; dosage 10 g/mu) | Post-emergence herbicidal activity, S. viridis (grade) (Setaria viridis; dosage 2.5 g/mu) | Post-emergence herbicidal activity, S. viridis (grade) (Setaria viridis; dosage 5 g/mu) | Post-emergence herbicidal activity, S. viridis (grade) (Setaria viridis; dosage 10 g/mu) | Post-emergence herbicidal activity, Trifoliumre pensL. (grade) (Trifoliumre pensL.; dosage 2.5 g/mu) | Post-emergence herbicidal activity, Trifoliumre pensL. (grade) (Trifoliumre pensL.; dosage 5 g/mu) | Post-emergence herbicidal activity, Trifoliumre pensL. (grade) (Trifoliumre pensL.; dosage 10 g/mu)
144 to 147 | Cc1ccccc1-c1nnc(COc2cc(N3C(=O)C4=C(CCCC4)C3=O)c(F)cc2Cl)o1 [Compound B9, 2-(4-chloro-2-fluoro-5-((5-(2-tolyl)-1,3,4-oxadiazole-2-yl)methoxy)phenyl)-4,5,6,7-tetrahydro-1H-isoindole-1,3(2H)-dione] | 5 (Grade 5: the growth control rate is greater than or equal to 85%) | 5 (Grade 5: the growth control rate is greater than or equal to 85%) | 5 (Grade 5: the growth control rate is greater than or equal to 85%) | 5 (Grade 5: the growth control rate is greater than or equal to 85%) | 5 (Grade 5: the growth control rate is greater than or equal to 85%) | 5 (Grade 5: the growth control rate is greater than or equal to 85%) | 1 (Grade 1: the growth control rate is greater than or equal to 5% and less than 20%) | 2 (Grade 2: the growth control rate is greater than or equal to 20% and less than 40%) | 3 (Grade 3: the growth control rate is greater than or equal to 40% and less than 60%) | 5 (Grade 5: the growth control rate is greater than or equal to 85%) | 5 (Grade 5: the growth control rate is greater than or equal to 85%) | 5 (Grade 5: the growth control rate is greater than or equal to 85%) | 2 (Grade 2: the growth control rate is greater than or equal to 20% and less than 40%) | 3 (Grade 3: the growth control rate is greater than or equal to 40% and less than 60%) | 4 (Grade 4: the growth control rate is greater than or equal to 60% and less than 85%) | 5 (Grade 5: the growth control rate is greater than or equal to 85%) | 5 (Grade 5: the growth control rate is greater than or equal to 85%) | 5 (Grade 5: the growth control rate is greater than or equal to 85%)
104 to 106 | Cc1ccc(-c2nnc(COc3cc(N4C(=O)C5=C(CCCC5)C4=O)c(F)cc3Cl)o2)cc1 [Compound B13, 2-(4-chloro-2-fluoro-5-((5-(4-tolyl)-1,3,4-oxadiazole-2-yl)methoxy)phenyl)-4,5,6,7-tetrahydro-1H-isoindole-1,3(2H)-dione] | 5 (Grade 5: the growth control rate is greater than or equal to 85%) | 5 (Grade 5: the growth control rate is greater than or equal to 85%) | 5 (Grade 5: the growth control rate is greater than or equal to 85%) | 5 (Grade 5: the growth control rate is greater than or equal to 85%) | 5 (Grade 5: the growth control rate is greater than or equal to 85%) | 5 (Grade 5: the growth control rate is greater than or equal to 85%) | 1 (Grade 1: the growth control rate is greater than or equal to 5% and less than 20%) | 2 (Grade 2: the growth control rate is greater than or equal to 20% and less than 40%) | 3 (Grade 3: the growth control rate is greater than or equal to 40% and less than 60%) | 5 (Grade 5: the growth control rate is greater than or equal to 85%) | 5 (Grade 5: the growth control rate is greater than or equal to 85%) | 5 (Grade 5: the growth control rate is greater than or equal to 85%) | 2 (Grade 2: the growth control rate is greater than or equal to 20% and less than 40%) | 3 (Grade 3: the growth control rate is greater than or equal to 40% and less than 60%) | 4 (Grade 4: the growth control rate is greater than or equal to 60% and less than 85%) | 5 (Grade 5: the growth control rate is greater than or equal to 85%) | 5 (Grade 5: the growth control rate is greater than or equal to 85%) | 5 (Grade 5: the growth control rate is greater than or equal to 85%)

— patent US20240300932A1, “N-PHENYLIMINE DERIVATIVE AND PREPARATION METHOD AND USE THEREOF” (Guizhou University, priority 2023, published 2024)
